{"source": "patent US7179812B2", "about": "“Diazine derivatives” (Hoffmann-la Roche Inc., priority 2005, dated 2007)"}
{"target": "T1, HER2 (Homo sapiens, UniProt P04626)", "T1 construct": "endogenous in cells; host or cells: Calu3 tumor cell line", "T1 sequence (P04626 23-1255)": "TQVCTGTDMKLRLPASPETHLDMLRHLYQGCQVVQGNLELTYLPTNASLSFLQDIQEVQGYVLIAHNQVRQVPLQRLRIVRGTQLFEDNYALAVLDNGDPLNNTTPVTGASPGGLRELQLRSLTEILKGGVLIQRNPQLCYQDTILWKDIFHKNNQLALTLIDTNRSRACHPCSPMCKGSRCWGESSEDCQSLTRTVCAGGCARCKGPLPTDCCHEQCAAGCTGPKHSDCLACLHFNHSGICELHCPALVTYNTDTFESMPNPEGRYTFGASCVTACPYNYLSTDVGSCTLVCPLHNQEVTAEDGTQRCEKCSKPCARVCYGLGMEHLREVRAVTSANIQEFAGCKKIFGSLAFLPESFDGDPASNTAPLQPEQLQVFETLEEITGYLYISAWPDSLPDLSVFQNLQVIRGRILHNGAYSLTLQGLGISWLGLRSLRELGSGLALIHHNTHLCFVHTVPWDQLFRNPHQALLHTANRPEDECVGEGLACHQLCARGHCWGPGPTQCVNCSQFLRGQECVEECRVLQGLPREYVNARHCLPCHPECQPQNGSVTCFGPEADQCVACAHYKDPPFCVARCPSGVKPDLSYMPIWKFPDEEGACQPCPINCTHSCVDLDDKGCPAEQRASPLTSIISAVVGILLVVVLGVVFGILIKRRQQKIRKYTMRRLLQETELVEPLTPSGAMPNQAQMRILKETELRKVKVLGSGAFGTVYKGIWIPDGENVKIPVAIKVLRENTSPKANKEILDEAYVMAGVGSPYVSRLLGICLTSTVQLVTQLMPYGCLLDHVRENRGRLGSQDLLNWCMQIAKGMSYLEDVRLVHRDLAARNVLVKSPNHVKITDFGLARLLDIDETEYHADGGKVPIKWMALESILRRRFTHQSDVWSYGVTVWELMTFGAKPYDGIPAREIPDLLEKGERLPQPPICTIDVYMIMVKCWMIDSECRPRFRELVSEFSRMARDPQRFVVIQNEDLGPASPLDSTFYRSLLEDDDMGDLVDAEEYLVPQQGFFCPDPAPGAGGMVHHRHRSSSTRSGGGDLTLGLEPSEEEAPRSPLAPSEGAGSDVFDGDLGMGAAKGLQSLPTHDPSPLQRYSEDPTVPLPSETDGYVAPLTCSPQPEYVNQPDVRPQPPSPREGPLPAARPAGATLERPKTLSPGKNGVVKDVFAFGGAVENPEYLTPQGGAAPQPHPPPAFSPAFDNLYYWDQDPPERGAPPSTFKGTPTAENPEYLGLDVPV", "test": "Inhibition of HER2 phosphorylation in Calu3 tumor cell line", "format": "cell-based", "conditions": "Calu-3; compound concentration 1 μM; Calu3 cells, 16 h incubation; pY 1248 in HER2; percentage of the DMSO treated control; read-out: Percent inhibition of HER2-phosphorylation", "procedure": "Inhibition of HER2 Phosphorylation in Calu3 Tumor Cell Line\n2×10^5 Calu3 cells per well were plated in a 12-well plate. After 4 days cells were starved for 16 h in DMEM(Dulbecco's Modified Eagle Medium)/0.5% FCS(Fetal Calf Serum)/1% Glutamine. During this time cells were incubated with 1 μM of the compound. Afterwards cells were lysed in lyses buffer containing 1% Triton, 10% Glycerol, 1 mM EGTA, 1.5 mM MgCl2, 150 mM NaCl, 50 mM Hepes pH 7.5, 1 mM PMSF, 10 μg/mL Aprotinin and […] Orthovanadate. Cell lysates were analyzed on a SDS PAGE and after transfer to a nitrocellulose membrane detected with an antibody specifically recognizing the pY 1248 in HER2. Inhibition of HER2 phosphorylation is calculated as percentage of the DMSO treated control. This percentage is calculated according to the following formula: Inhibition in %=100−(Phosphorylated-HER2-Signal of Test Sample*100/Phosphorylated-HER2-Signal DMSO-control).", "units": {"inhibition at 1 µM": "%"}}
{"smiles": "FC(F)(F)c1ccc(C=Cc2nc(COc3ncc(CCCCn4ccnn4)cn3)co2)cc1", "note": "[example 4, 5-(4-[1,2,3]Triazol-1-yl-butyl)-2-{2-[2-(4-trifluoromethyl-phenyl)-vinyl]-oxazol-4-ylmethoxy}-pyrimidine]", "inhibition at 1 µM": 72.7}
{"smiles": "FC(F)(F)c1ccc(C=Cc2nc(COc3cnc(CCCCn4ccnn4)cn3)co2)cc1", "note": "[example 7, 2-(4-[1,2,3]Triazol-1-yl-butyl)-5-{2-[2-(4-trifluoromethyl-phenyl)-vinyl]-oxazol-4-ylmethoxy}-pyrazine]", "inhibition at 1 µM": 75.3}
{"smiles": "FC(F)(F)c1ccc(C=Cc2nc(COc3ccc(CCCCn4ccnn4)nn3)co2)cc1", "note": "[example 2, 3-(4-[1,2,3]Triazol-1-yl-butyl)-6-{2-[2-(4-trifluoromethyl-phenyl)-vinyl]-oxazol-4-ylmethoxy}-pyridazine]", "inhibition at 1 µM": 79.8}
